Tested on: 935938-334-R-J1-PDC spheroids with HUVEC/MSC, viability
Assay: Anticancer human tumor 935938-334-R-J1-PDC patient-derived small intestine adenocarcinoma cell line growth inhibition [PI3K]
Conditions: for IC50: curve of first compound; for viability, T/C: stronger effect = lower value
How it was run: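 Combination activity was assessed by viability in multicellular tumor spheroids carrying HUVEC and MSC components. Agents were tested with PI3K inhibitors from a Cmax-based top dose (or 10 microM) downward in half-log increments.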

[1] = second compound 0.00316 µM, first compound 0.0316 µM
[2] = second compound 0.00316 µM, first compound 0.1 µM
[3] = second compound 0.01 µM, first compound 0.0316 µM
[4] = second compound 0.01 µM, first compound 0.1 µM
[5] = second compound 0.0316 µM, first compound 0.0316 µM
[6] = second compound 0.0316 µM, first compound 0.1 µM
[7] = second compound 0.1 µM, first compound 0.0316 µM
[8] = second compound 0.1 µM, first compound 0.1 µM
[9] = second compound 0.316 µM, first compound 0.0316 µM
[10] = second compound 0.316 µM, first compound 0.1 µM
[11] = second compound 1 µM, first compound 0.0316 µM
[12] = second compound 1 µM, first compound 0.1 µM
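Also: compound exposure lasted seven days before viability was read.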
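For viability, T/C in this document: percent of vehicle DMSO treated spheroid viability so 100% = untreated.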

Structure (SMILES): CC(=O)c1c(C)c2cnc(Nc3ccc(N4CCNCC4)cn3)nc2n(C2CCCC2)c1=O + COc1c(OCCCN2CCOCC2)ccc2c3n(c(=NC(=O)c4cnc(N)nc4)nc12)CCN3
- IC50 (second compound 0.00316 µM): > 0.1 µM
- IC50 (second compound 0.01 µM): > 0.1 µM
- IC50 (second compound 0.0316 µM): > 0.1 µM
- IC50 (second compound 0.1 µM): 0.000621 µM
- IC50 (second compound 0.316 µM): < 0.000316 µM
- IC50 (second compound 1 µM): < 0.000316 µM
- viability, T/C (second compound 0.00316 µM, first compound 0.000316 µM): 94.8%
- viability, T/C (second compound 0.00316 µM, first compound 0.001 µM): 98.7%
- viability, T/C (second compound 0.00316 µM, first compound 0.00316 µM): 80.2%
- viability, T/C (second compound 0.00316 µM, first compound 0.01 µM): 113%
- viability, T/C [1]: 110%
- viability, T/C [2]: 57.4%
- viability, T/C (second compound 0.01 µM, first compound 0.000316 µM): 99.7%
- viability, T/C (second compound 0.01 µM, first compound 0.001 µM): 90.8%
- viability, T/C (second compound 0.01 µM, first compound 0.00316 µM): 80.4%
- viability, T/C (second compound 0.01 µM, first compound 0.01 µM): 90.1%
- viability, T/C [3]: 78.4%
- viability, T/C [4]: 56.3%
- viability, T/C (second compound 0.0316 µM, first compound 0.000316 µM): 81.8%
- viability, T/C (second compound 0.0316 µM, first compound 0.001 µM): 74.7%
- viability, T/C (second compound 0.0316 µM, first compound 0.00316 µM): 68.3%
- viability, T/C (second compound 0.0316 µM, first compound 0.01 µM): 63.2%
- viability, T/C [5]: 63.8%
- viability, T/C [6]: 48.6%
- viability, T/C (second compound 0.1 µM, first compound 0.000316 µM): 54.4%
- viability, T/C (second compound 0.1 µM, first compound 0.001 µM): 48.6%
- viability, T/C (second compound 0.1 µM, first compound 0.00316 µM): 37.9%
- viability, T/C (second compound 0.1 µM, first compound 0.01 µM): 42%
- viability, T/C [7]: 39.7%
- viability, T/C [8]: 35.6%
- viability, T/C (second compound 0.316 µM, first compound 0.000316 µM): 39.9%
- viability, T/C (second compound 0.316 µM, first compound 0.001 µM): 32.6%
- viability, T/C (second compound 0.316 µM, first compound 0.00316 µM): 29.2%
- viability, T/C (second compound 0.316 µM, first compound 0.01 µM): 33.3%
- viability, T/C [9]: 27.9%
- viability, T/C [10]: 35.3%
- viability, T/C (second compound 1 µM, first compound 0.000316 µM): 38.4%
- viability, T/C (second compound 1 µM, first compound 0.001 µM): 35.2%
- viability, T/C (second compound 1 µM, first compound 0.00316 µM): 35.3%
- viability, T/C (second compound 1 µM, first compound 0.01 µM): 39.6%
- viability, T/C [11]: 30.2%
- viability, T/C [12]: 31%

Structure (SMILES): CNC(=O)c1ccc(N2C(=S)N(c3ccc(C#N)c(C(F)(F)F)c3)C(=O)C2(C)C)cc1F + COc1c(OCCCN2CCOCC2)ccc2c3n(c(=NC(=O)c4cnc(N)nc4)nc12)CCN3
- IC50 (second compound 0.00316 µM): > 10 µM
- IC50 (second compound 0.01 µM): > 10 µM
- IC50 (second compound 0.0316 µM): > 10 µM
- IC50 (second compound 0.1 µM): 0.0694 µM
- IC50 (second compound 0.316 µM): < 0.0316 µM
- IC50 (second compound 1 µM): < 0.0316 µM
- viability, T/C [1]: 89.8%
- viability, T/C [2]: 76.3%
- viability, T/C (second compound 0.00316 µM, first compound 0.316 µM): 74.8%
- viability, T/C (second compound 0.00316 µM, first compound 1 µM): 66.8%
- viability, T/C (second compound 0.00316 µM, first compound 3.16 µM): 103%
- viability, T/C (second compound 0.00316 µM, first compound 10 µM): 93.4%
- viability, T/C [3]: 87.6%
- viability, T/C [4]: 96.8%
- viability, T/C (second compound 0.01 µM, first compound 0.316 µM): 102%
- viability, T/C (second compound 0.01 µM, first compound 1 µM): 85.8%
- viability, T/C (second compound 0.01 µM, first compound 3.16 µM): 104%
- viability, T/C (second compound 0.01 µM, first compound 10 µM): 92.7%
- viability, T/C [5]: 84.5%
- viability, T/C [6]: 85.3%
- viability, T/C (second compound 0.0316 µM, first compound 0.316 µM): 82.1%
- viability, T/C (second compound 0.0316 µM, first compound 1 µM): 81%
- viability, T/C (second compound 0.0316 µM, first compound 3.16 µM): 76.6%
- viability, T/C (second compound 0.0316 µM, first compound 10 µM): 66.6%
- viability, T/C [7]: 62.9%
- viability, T/C [8]: 42.6%
- viability, T/C (second compound 0.1 µM, first compound 0.316 µM): 49.1%
- viability, T/C (second compound 0.1 µM, first compound 1 µM): 44.5%
- viability, T/C (second compound 0.1 µM, first compound 3.16 µM): 42.9%
- viability, T/C (second compound 0.1 µM, first compound 10 µM): 40.2%
- viability, T/C [9]: 43.3%
- viability, T/C [10]: 29.4%
- viability, T/C (second compound 0.316 µM, first compound 0.316 µM): 31.3%
- viability, T/C (second compound 0.316 µM, first compound 1 µM): 32.4%
- viability, T/C (second compound 0.316 µM, first compound 3.16 µM): 36.7%
- viability, T/C (second compound 0.316 µM, first compound 10 µM): 24.4%
- viability, T/C [11]: 34.9%
- viability, T/C [12]: 30.6%
- viability, T/C (second compound 1 µM, first compound 0.316 µM): 38.3%
- viability, T/C (second compound 1 µM, first compound 1 µM): 34.2%
- viability, T/C (second compound 1 µM, first compound 3.16 µM): 29.3%
- viability, T/C (second compound 1 µM, first compound 10 µM): 24.8%

Structure (SMILES): Cn1cnc2c(F)c(Nc3ccc(Br)cc3Cl)c(C(=O)NOCCO)cc21 + COc1c(OCCCN2CCOCC2)ccc2c3n(c(=NC(=O)c4cnc(N)nc4)nc12)CCN3
- IC50 (second compound 0.00316 µM): 0.0609 µM
- IC50 (second compound 0.01 µM): 0.0566 µM
- IC50 (second compound 0.0316 µM): 0.0403 µM
- IC50 (second compound 0.1 µM): < 0.00949 µM
- IC50 (second compound 0.316 µM): < 0.00949 µM
- IC50 (second compound 1 µM): < 0.00949 µM
- viability, T/C (second compound 0.00316 µM, first compound 0.00949 µM): 70.9%
- viability, T/C (second compound 0.00316 µM, first compound 0.03 µM): 55.8%
- viability, T/C (second compound 0.00316 µM, first compound 0.0949 µM): 49.6%
- viability, T/C (second compound 0.00316 µM, first compound 0.3 µM): 30.8%
- viability, T/C (second compound 0.00316 µM, first compound 0.949 µM): 30.9%
- viability, T/C (second compound 0.00316 µM, first compound 3 µM): 23.4%
- viability, T/C (second compound 0.01 µM, first compound 0.00949 µM): 76.8%
- viability, T/C (second compound 0.01 µM, first compound 0.03 µM): 63.6%
- viability, T/C (second compound 0.01 µM, first compound 0.0949 µM): 36.4%
- viability, T/C (second compound 0.01 µM, first compound 0.3 µM): 32.6%
- viability, T/C (second compound 0.01 µM, first compound 0.949 µM): 22.6%
- viability, T/C (second compound 0.01 µM, first compound 3 µM): 18.4%
- viability, T/C (second compound 0.0316 µM, first compound 0.00949 µM): 64.5%
- viability, T/C (second compound 0.0316 µM, first compound 0.03 µM): 51.7%
- viability, T/C (second compound 0.0316 µM, first compound 0.0949 µM): 42.4%
- viability, T/C (second compound 0.0316 µM, first compound 0.3 µM): 27%
- viability, T/C (second compound 0.0316 µM, first compound 0.949 µM): 22.2%
- viability, T/C (second compound 0.0316 µM, first compound 3 µM): 20.3%
- viability, T/C (second compound 0.1 µM, first compound 0.00949 µM): 31.4%
- viability, T/C (second compound 0.1 µM, first compound 0.03 µM): 29.9%
- viability, T/C (second compound 0.1 µM, first compound 0.0949 µM): 20.9%
- viability, T/C (second compound 0.1 µM, first compound 0.3 µM): 16.2%
- viability, T/C (second compound 0.1 µM, first compound 0.949 µM): 17.3%
- viability, T/C (second compound 0.1 µM, first compound 3 µM): 14.1%
- viability, T/C (second compound 0.316 µM, first compound 0.00949 µM): 26.8%
- viability, T/C (second compound 0.316 µM, first compound 0.03 µM): 21.4%
- viability, T/C (second compound 0.316 µM, first compound 0.0949 µM): 19.4%
- viability, T/C (second compound 0.316 µM, first compound 0.3 µM): 17.7%
- viability, T/C (second compound 0.316 µM, first compound 0.949 µM): 18.9%
- viability, T/C (second compound 0.316 µM, first compound 3 µM): 15%
- viability, T/C (second compound 1 µM, first compound 0.00949 µM): 29%
- viability, T/C (second compound 1 µM, first compound 0.03 µM): 24.4%
- viability, T/C (second compound 1 µM, first compound 0.0949 µM): 21.4%
- viability, T/C (second compound 1 µM, first compound 0.3 µM): 21.3%
- viability, T/C (second compound 1 µM, first compound 0.949 µM): 17.9%
- viability, T/C (second compound 1 µM, first compound 3 µM): 14%

Source: PubChem BioAssay AID1963966 (Molecular Pharmacology Branch, DTP, NCI, 2024)
